From patent US4232008A, “Tetrapeptides and methods” (Ortho Pharmaceutical Corporation, priority 1978, dated 1980)
Square brackets hold non-standard residues; d marks the D form. Ends that are not written are not given here. Peptide text beside a SMILES is read from it. Glx = not defined here; Sar = CNCC(=O)O

Assays:
[1] = tested on: Th-1+ T-lymphocytes and Bu-1+ B-lymphocytes (differentiation of inducible bone marrow cells); experiment: chicken induction assay; format: cell-based; conditions: for biological activity: induction of differentiation of Th-1+ T and Bu-1+ B lymphocytes, compared with ubiquitin: chicken bone marrow cells, cytotoxicity index readout; for concentration at which activity was observed: chicken induction assay
Excerpt: To determine the activity and characteristics of the tetrapeptide produced in Example I, the following chicken induction assay was employed. This assay is described in greater detail in Brand, et. al., Science, 193 319-321 (July 23, 1976) and references contained therein.
Bone marrow from newly-hatched chickens was selected as a source of inducible cells because it lacks an appreciable number of Bu-1^+ or Th-1^+ cells. Pooled cells from femur and tibiotarsus of five newly-hatched chicks of strains SC (Hy-Line) were fractionated by ultracentrifugation on a five-layer discontinuous bovine serum albumin (BSA) gradient. Cells from the two lighter layers were combined, washed, and suspended for incubation at a concentration of 5×10^6 cells per milliliter with the appropriate concentration of test polypeptide in RPMI 1630 medium supplemented with 15 mM hepes, 5 percent γ-globulin-free fetal calf serum, deoxyribonuclease (14 to 18 unit/ml), heparin (5 unit/ml), penicillin (100 unit/ml), and streptomycin (100 μg/ml). Controls were incubated with BSA (1 μg/ml) or medium alone. After incubation, the cells were tested in the cytotoxicity assay using chicken Cl and guinea pig C2 to C9 complement fractions as described in the reference article. The proportion of Bu-1^+ or Th-1^+ cells in each layer was calculated as a cytotoxicity index, 100 (a-b)/a, where a and b are the percentages of viable cells in the complement control and test preparation, respectively. The percentage of cells induced was obtained by subtracting the mean values in the control incubations without inducing agents (usually 1 to 3 percent) from those of the test inductions.
This high dose of ubiquitin inactivates the ubiquitin receptors and thus prevents the induction of cells by any agent which acts through these receptors.

[2] = tested on: cytotoxic lymphocyte precursors (CLP); experiment: microculture limiting dilution assay of cytotoxic lymphocyte precursor frequencies after injection of the drug; format: in vivo, mice (C57 BL/6J); conditions: in vitro assay of spleen cells after administration
Description: To further illustrate the utility of the subject polypeptides, this example describes a microculture assay for estimating the frequencies of the cytotoxic lymphocytes produced upon stimulation by allogenic antigens. The frequencies of cytotoxic precursors between control animals and animals injected with various concentrations of the drug were compared by a limiting dilution assay.
The test animals (C57 BL/6J) were injected (i.v. or i.p.) with various concentrations of H--SAR--LYS--SAR--GLN--NH2 (the drug; identification no. G040) in 0.2 ml volume 24 hours before they were sacrificed for the experiments.
Cell suspensions from spleens of C57 BL/6J mice or DBA/2J mice were prepared by mincing the organ and pressing them through a wire mesh (60 gauge) with the plunger of a 5 c.c. syringe into a falcon petri dish (falcon 3002, 15×60 mm). The cell suspensions were allowed to stand at room temperature for 10 minutes to let the big chunks of tissue settle. The cell suspensions were then transferred to 15 ml Corning centrifuge tubes (Corning 25310) and spun for 10 minutes at 1500 RPM in the Beckmen TJ-6 centrifuge. […] After the third wash, the responder (C57 BL/6J) cells were resuspended in culture medium and counted in the Coulter counter. […] The DBA cells were then resuspended in the culture medium and counted in the Coulter counter. […]

T cells and B cells = conditions: applicant's published investigation; cited from earlier work
T cells = conditions: E rosette assay, Bach articles; cited from earlier work

Row | Compound | biological activity: induction of differentiation of Th-1+ T and Bu-1+ B lymphocytes, compared with ubiquitin [1] | other results
1 | CNCC(=O)N[C@@H](CCCCN)C(=O)N[C@H](C)C(=O)N[C@@H](CCC(N)=O)C(N)=O [H--SAR--LYS--D--ALA--GLN--NH2] (H-[Sar]K[dA]Q-NH2) | biological activity similar to that of ubiquitin | –
2 | QAKSQGGSN [H--GLN--ALA--LYS--SER--GLN--GLY--GLY--SER--ASN--OH, reference compound] | biological activity similar to that of ubiquitin | –
3 | C[C@@H](N)C(=O)N[C@@H](CCCCN)C(=O)N[C@H](C)C(=O)N[C@@H](CCC(N)=O)C(N)=O [H--D--ALA--LYS--D--ALA--GLN--NH2] (H-[dA]K[dA]Q-NH2) | biological activity similar to that of ubiquitin | –
4 | CNCC(=O)N[C@@H](CCCCN)C(=O)N(C)CC(=O)N[C@@H](CCC(N)=O)C(N)=O [H--SAR--LYS--SAR--GLN--NH2] (H-[Sar]K[Sar]Q-NH2) | biological activity similar to that of ubiquitin | concentration at which activity was observed [1]: ≥ 0.1 pg/mL; effect on in vivo production of cytotoxic lymphocyte precursors upon stimulation by allogenic antigens [2]: promoted the production of cytotoxic lymphocyte precursors
5 | C[C@H](N)C(=O)N[C@@H](CCCCN)C(=O)N[C@@H](CO)C(=O)N[C@@H](CCC(N)=O)C(=O)O [Example I, H--ALA--LYS--SER--GLN--OH] (H-AKSQ-OH) | biological activity similar to that of ubiquitin | concentration at which activity was observed [1]: ng/ml concentrations
6 | CNCC(=O)N[C@@H](C)C(=O)N[C@@H](CCCCN)C(=O)N[C@@H](CO)C(=O)N[C@@H](CCC(N)=O)C(=O)O [H--SAR--ALA--LYS--SER--GLN--OH] (H-[Sar]AKSQ-OH) | biological activity similar to that of ubiquitin | –
7 | GLX--ALA--LYS--SER--GLN--GLY--GLY--SER--ASN (Glx-AKSQGGSN; reading uncertain; also: N-terminal Glx: Gln or pyroglutamic acid, printed as GLX--ALA--LYS--SER--GLN--GLY--GLY--SER--ASN) [FTS, nonapeptide isolated from porcine serum by Bach; GLX is glutamine or pyroglutamic acid] | – | differentiation of T cells and B cells (T cells and B cells): differentiated both T cells and B cells; differentiation of T cells versus B cells (T cells): selectively differentiated T cells (and not B cells)
8 | QAKSQ [H--GLN--ALA--LYS--SER--GLN--OH] | biological activity similar to that of ubiquitin | –
